Test results from patent US20140242093A1, “METHODS AND COMPOSITIONS FOR MODULATING THE INNATE IMMUNE RESPONSE AND/OR MYOGENESIS IN A MAMMALIAN SUBJECT” (FRED HUTCHINSON CANCER RESEARCH CENTER, priority 2011, published 2014).

Tested on: control human primary myoblasts
Experiment: Expression microarray of primary myoblasts transduced with lentivirus carrying DUX4-fl, DUX4-s or GFP
Conditions: cultured human skeletal muscle
Description: Primary human myoblasts were collected and cultured as previously described (Snider et al., 2010). Primary myoblasts were maintained at or below 70% confluency for proliferation. For differentiation, cells were allowed to reach 95-100% confluency in growth medium. Once confluency was reached, the cells were changed to differentiation medium (F10 media supplemented with 1% horse serum, 10 μg/mL insulin, and 10 μg/mL transferrin, penicillin/streptomycin) and maintained for 4 days. Human RD cells were grown in DMEM in 10% bovine calf serum (Hyclone) and penicillin/streptomycin. The primary myoblasts were transduced with lentivirus carrying DUX-fl, DUX4- or GFP (MOI=15).
Expression microarrays were performed on the transduced cells at 24 hours after transduction as follows. […] Samples were analyzed by Illumina Human Whole Genome microarrays. Probe intensities were corrected, normalized, and summarized by the Lumi package of Bioconductor (Du et al., 2008). Differentially expressed genes were identified by the LIMMA package of Bioconductor (Wettenhall and Smyth, 2004). Gene set enrichment analysis (GSEA) was performed using the Bioconductor GOstats package (Falcon and Gentleman, 2007).

“DUX4-fl: full-length DUX4 protein (SEQ ID NO:110), expressed from lentiviral or pCS2 vectors or in vitro translated” was tested, and the MT1A expression fc was −1.526, the MT2A expression fc was −1.443 and the MUC1 expression fc was −1.74. The MYBPHL expression fc was −1.492, the MYF5 expression fc was −1.587 and the MYH13 expression fc was −1.441. It also gave an NACC2 expression fc of −1.787, an NFIL3 expression fc of −1.823 and an NFKB1 expression fc of −1.512. The NFKBIZ expression fc was −1.572, the NINJ1 expression fc was −1.694 and the NPTX2 expression fc was −1.386. It also gave an NRXN2 expression fc of −1.627, an NT5E expression fc of −1.558 and an OCEL1 expression fc of −1.412. It also gave a P2RX6 expression fc of −1.475, a PARP3 expression fc of −1.483 and a PCK2 expression fc of −1.776. It also gave a PCTK3 expression fc of −1.641, a PDK4 expression fc of −1.521 and a PDPN expression fc of −1.623. It also gave a PFKFB4 expression fc of −1.865, a PHF15 expression fc of −1.415 and a PHLDA3 expression fc of −1.557. It also gave a PLA2G4C expression fc of −1.429, a PLEKHA4 expression fc of −1.457 and a PLIN2 expression fc of −1.413. For the same substance, the PLXNB1 expression fc was −1.442, the PLXNB2 expression fc was −1.649 and the PPAP2B expression fc was −1.742. For the same substance, the PPP3CC expression fc was −1.457, the PRDM1 expression fc was −1.573 and the PRKCD expression fc was −1.531. The PSMB10 expression fc was −1.6, the PSME2 expression fc was −1.477 and the PTGES expression fc was −1.632. It also gave a PTPRU expression fc of −1.477, an RALGDS expression fc of −1.475 and an RBCK1 expression fc of −1.636. The RBM43 expression fc was −1.517, the RCAN1 expression fc was −1.566 and the RELB expression fc was −1.391. It also gave an RGS20 expression fc of −1.478, an RHBDF2 expression fc of −1.741 and an RRAS expression fc of −1.405. For the same substance, the RRBP1 expression fc was −1.483, the RTKN expression fc was −1.734 and the RTTN expression fc was −1.663. It also gave an RUSC1 expression fc of −1.47, an SERPING1 expression fc of −1.668 and an SESN1 expression fc of −1.581. It also gave an SHISA5 expression fc of −1.763, an SIX5 expression fc of −1.673 and an SLC16A3 expression fc of −1.582. The SLC22A18 expression fc was −1.56, the SLC25A28 expression fc was −1.534 and the SLC39A14 expression fc was −1.872. It also gave an SPTLC3 expression fc of −1.444, an SQSTM1 expression fc of −1.695 and an SRGN expression fc of −1.873. For the same substance, the STC1 expression fc was −1.571, the STEAP3 expression fc was −1.405 and the SUSD2 expression fc was −1.398. For the same substance, the TAPBP expression fc was −1.844, the TCEA3 expression fc was −1.706 and the TCP11L1 expression fc was −1.532. The TMEM45A expression fc was −1.574, the TMEM173 expression fc was −1.816 and the TNFAIP2 expression fc was −1.593. The TNFRSF1A expression fc was −1.672, the TNFRSF6B expression fc was −1.678 and the TNFSF13B expression fc was −1.763. The TNS3 expression fc was −1.56, the TRAF3IP2 expression fc was −1.529 and the TRIP6 expression fc was −1.457. The TRNP1 expression fc was −1.527, the TSC22D3 expression fc was −1.729 and the VASN expression fc was −1.76. It also gave a VEZF1 expression fc of −1.528 and an XBP1 expression fc of −1.679.
